Source: US20150113683A1, “METHODS FOR PLANT TRANSFORMATION USING SPECTINOMYCIN SELECTION” (Monsanto Technology LLC, priority 2007, published 2015)
Several values for one entry are separate records, joined by “and”; a condition that tells them apart may be missing. Identical values can stand only once.

Experiments:
[1] = system: dry soybean explants; test: Dry soybean embryos, spectinomycin, liquid culture medium: TF with hydration conditions and liquid overlay timing; format: cell-based; details: spectinomycin 150 ppm
Description: In these studies, explants were initially hydrated and eventually regenerated on WPM solid media with liquid overlay or WPM liquid medium as above. […] In liquid overlay treatment both solid and liquid culture media were used; liquid medium was dispensed over the top of explants as they were lying on solid medium at a specified time during tissue culture as identified in the Table 30. This was done as a type of media refreshment and avoids the need for transferring explants from old media to new media. In the control treatments, explants were surface plated on a solid WPM medium (Table 2).

[2] = system: 3 months stored dry soybean explants; test: Stored dry soybean explants, spectinomycin, pre-culture: TF; format: cell-based; details: pMON107379
Description: TDZ and lipoic acid were both added to the inoculum and to the co-culture media (INO). The construct, pMON107379, was a conventional 2T vector comprising oriRi and aadA gene, and co-culture was done for 5 days.

[3] = system: soybean explants; test: Transformation frequency using spectinomycin selection at different levels; format: cell-based, soybean (Glycine max)
[4] = system: dry excised soybean explants; test: Dry soybean embryos, spectinomycin, whole regenerated explant with pre-culturing step: TF and event quality; format: cell-based; details: for % quality events: 1-2 copies of GUS and aadA by Invader assay; for # Events produced / TF % / qTF %: spectinomycin 150 ppm; for Estimated mTF %: marker-free TF, events without the marker gene
[5] = system: dry soybean explants; test: Transformation frequency of dry soybean explants using glyphosate or spectinomycin as selective agent; format: cell-based; details: for % TF: dry soybean explants
[6] = system: soybean explants; test: Explants on different levels of spectinomycin: GUS-expressing buds and shoots; format: cell-based, soybean (Glycine max); details: for % explants with GUS+ shoots/buds / # Explants with GUS+ shoots/buds: 2 mg/L TDZ in co-culture; for # Explants with GUS+ shoots/buds: 25 explants assayed
[7] = Total over all Spec levels of the experiment (1102: 25-250 mg/L; 1119: 50-250 mg/L)
[8] = first study, spectinomycin selection 25-250 mg/L

## CN[C@@H]1[C@H](O)[C@H](NC)[C@H]2O[C@@]3(O)C(=O)C[C@@H](C)O[C@H]3O[C@@H]2[C@H]1O [Spectinomycin, spectinomycin]
[1]; Treatment 1-Control, hydration medium INO, incubation with Agrobacteria 0 minutes, surface plated on solid WPM
  TF % (mean of 3 repeats): 3.10%
[1]; Treatment 2, hydration medium BGM w/o cefotaxime, incubation with Agrobacteria 0 minutes
  TF % (mean of 3 repeats): 14.67%
[1]; Treatment 2, no liquid overlay, Oasis Wedge transfer for regeneration
  TF % (mean of repeats): 14.67%
[1]; Treatment 3, hydration medium BGM w/o cefotaxime, incubation with Agrobacteria 15 minutes
  TF % (mean of 3 repeats): 15.45%
[1]; Treatment 3, liquid overlay 3 weeks post inoculation, 5 mLs on solid WPM, Oasis Wedge transfer
  TF % (mean of repeats): 15.45%
[1]; Treatment 4, hydration medium BGM w/o cefotaxime, incubation with Agrobacteria 30 minutes
  TF % (mean of 3 repeats): 18.50%
[1]; Treatment 4, liquid overlay 3 weeks post inoculation, 10 mLs on solid WPM, Oasis Wedge transfer
  TF % (mean of repeats): 18.50%
[1]; Treatment 5, hydration medium INO, incubation with Agrobacteria 0 minutes
  TF % (mean of 3 repeats): 13.98%
[1]; Treatment 5, liquid overlay 4 weeks post inoculation, 5 mLs on solid WPM, Oasis Wedge transfer
  TF % (mean of repeats): 13.98%
[1]; Treatment 6, hydration medium INO, incubation with Agrobacteria 15 minutes
  TF % (mean of 3 repeats): 9.64%
[1]; Treatment 6, liquid overlay 4 weeks post inoculation, 10 mLs on solid WPM, Oasis Wedge transfer
  TF % (mean of repeats): 9.64%
[1]; Treatment 7, hydration medium INO, incubation with Agrobacteria 30 minutes
  TF % (mean of 3 repeats): 13.79%
[1]; Treatment Control-1, liquid overlay NA, overlay volume None, no Oasis Wedge transfer
  TF % (mean of repeats): 8.00%
[2]; Fresh Dry Explants, no pre-culture step, 375 explants
  R0 plants: 24
[2]; Fresh Dry Explants, no pre-culture step
  TF: 6.40%
[2]; Fresh Dry Explants, pre-culture step 5 days 23° C. dark in BGM, 1008 explants
  R0 plants: 112
[2]; Fresh Dry Explants, pre-culture step 5 days 23° C. dark in BGM
  TF: 11.11%
[2]; Stored Dry Explants (3 months), no pre-culture step, 678 explants
  R0 plants: 71
[2]; Stored Dry Explants (3 months), no pre-culture step
  TF: 10.47%
[2]; Stored Dry Explants (3 months), pre-culture step 5 days 23° C. dark in BGM, 901 explants
  R0 plants: 129
[2]; Stored Dry Explants (3 months), pre-culture step 5 days 23° C. dark in BGM
  TF: 14.32%
[2]; Wet Excised explants, no pre-culture step, 263 explants
  R0 plants: 75
[2]; Wet Excised explants, no pre-culture step
  TF: 28.52%
[3]; Spec level 25 mg/L
  % TF (transformation frequency): 19%
  Plants tested for transformation, Total: 19
  Shoots harvested, % SF (shoot frequency): 46%
  Shoots harvested, Total: 46
[3]; Spec level 50 mg/L
  % TF (transformation frequency): 14.7% and 22.2%
  Plants tested for transformation, Total: 88 and 48
  Shoots harvested, % SF (shoot frequency): 24.8% and 46.8%
  Shoots harvested, Total: 149 and 101
[3]; Spec level 100 mg/L
  % TF (transformation frequency): 15.7% and 12.6%
  Shoots harvested, % SF (shoot frequency): 20.5% and 20.6%
[3]; Spec level 150 mg/L
  % TF (transformation frequency): 26.1% and 18.3%
  Shoots harvested, % SF (shoot frequency): 35.1% and 20.8%
[3]; Spec level 200 mg/L
  % TF (transformation frequency): 14.4% and 12.5%
  Shoots harvested, % SF (shoot frequency): 28.2% and 15.2%
  Shoots harvested, Total: 53 and 91
[3]; Spec level 250 mg/L
  % TF (transformation frequency): 19.5% and 16.3%
  Shoots harvested, % SF (shoot frequency): 27.5% and 18.0%
  Shoots harvested, Total: 55 and 108
[3]; [7]
  % TF (transformation frequency): 18.6% and 15.5%
  Shoots harvested, % SF (shoot frequency): 33.3% and 19.9%
  Shoots harvested, Total: 330 and 596
[3]; [8]
  average transformation frequency: 18.6%
  transformation frequency, range: 12.6-26.1%
[3]; of the first 32 plants tested to confirm transformation, one escape
  plants later shown to be transformed: 31
[4]; Dry Excised - 2T/OriRi, 14 events assayed
  % quality events: 28.6%
[4]; Dry Excised - 2T/OriRi, 161 explants
  # Events produced: 15
[4]; Dry Excised - 2T/OriRi
  Estimated mTF %: 0.45%
  TF %: 9.32 +/− 7.38%
  qTF %: 2.5%
[4]; Dry Excised - 2T/OriV, 32 events assayed
  % quality events: 21.9%
[4]; Dry Excised - 2T/OriV, 260 explants
  # Events produced: 34
[4]; Dry Excised - 2T/OriV
  Estimated mTF %: 0.62%
  TF %: 13.1 +/− 0.17%
  qTF %: 2.7 +/− 0.23%
[4]; Pre-cultured Dry - 2T/OriRi, 64 events assayed
  % quality events: 20.3%
[4]; Pre-cultured Dry - 2T/OriRi, 336 explants, pre-culture 5 days 23° C. dark in BGM
  # Events produced: 66
[4]; Pre-cultured Dry - 2T/OriRi
  Estimated mTF %: 0.7%
  qTF %: 3.9 +/− 1.22%
[4]; Pre-cultured Dry - 2T/OriRi, pre-culture 5 days 23° C. dark in BGM
  TF %: 19.64 +/− 1.97%
[4]; Pre-cultured Dry - 2T/OriV, 311 events assayed
  % quality events: 24.4%
[4]; Pre-cultured Dry - 2T/OriV, 1641 explants, pre-culture 5 days 23° C. dark in BGM
  # Events produced: 319
[4]; Pre-cultured Dry - 2T/OriV
  Estimated mTF %: 1.1%
  qTF %: 4.6 +/− 1.35%
[4]; Pre-cultured Dry - 2T/OriV, pre-culture 5 days 23° C. dark in BGM
  TF %: 19.4 +/− 5.42%
[5]; 150 ppm spectinomycin, dry excised soybean embryos, 1 hr hydration in INO, 4 days co-culture, two different studies
  transformation frequencies: 25.05% and 19.27%
[5]; Spectinomycin 25 ppm in regeneration medium
  % TF: 4.66%
[5]; Spectinomycin 50 ppm in regeneration medium
  % TF: 4.24%
[5]; Spectinomycin 100 ppm in regeneration medium
  % TF: 6.34%
[5]; Spectinomycin 200 ppm in regeneration medium
  % TF: 5.99%
[6]; spectinomycin level 25 (mg/L)
  % explants with GUS+ shoots/buds: 52%
  # Explants with GUS+ shoots/buds: 13
[6]; spectinomycin level 50
  % explants with GUS+ shoots/buds: 72%
  # Explants with GUS+ shoots/buds: 18
[6]; spectinomycin level 100
  % explants with GUS+ shoots/buds: 76%
  # Explants with GUS+ shoots/buds: 19
[6]; spectinomycin level 150
  % explants with GUS+ shoots/buds: 72%
  # Explants with GUS+ shoots/buds: 18
[6]; spectinomycin level 200
  % explants with GUS+ shoots/buds: 80%
  # Explants with GUS+ shoots/buds: 20
[6]; spectinomycin level 250
  % explants with GUS+ shoots/buds: 80%
  # Explants with GUS+ shoots/buds: 20
[6]; within two weeks on selective medium, about 22 DAI, TDZ-treated explants
  explants that developed GUS-positive buds and shoots: Up to 80%
